Assay results published in article PMC6152084, “Synthesis of New Hydrazone Derivatives for MAO Enzymes Inhibitory Activity” (Molecules : A Journal of Synthetic Chemistry and Natural …, 2017).

What was measured:
hMAO-B = molecular target: T1, hMAO-B (Homo sapiens, UniProt P27338); experiment: MAO-B inhibition assay (in vitro fluorometric Amplex Red method); assay type: biochemical
T1 construct: purchased Sigma-Aldrich (Steinheim, Germany)
T1 sequence (P27338 1-520): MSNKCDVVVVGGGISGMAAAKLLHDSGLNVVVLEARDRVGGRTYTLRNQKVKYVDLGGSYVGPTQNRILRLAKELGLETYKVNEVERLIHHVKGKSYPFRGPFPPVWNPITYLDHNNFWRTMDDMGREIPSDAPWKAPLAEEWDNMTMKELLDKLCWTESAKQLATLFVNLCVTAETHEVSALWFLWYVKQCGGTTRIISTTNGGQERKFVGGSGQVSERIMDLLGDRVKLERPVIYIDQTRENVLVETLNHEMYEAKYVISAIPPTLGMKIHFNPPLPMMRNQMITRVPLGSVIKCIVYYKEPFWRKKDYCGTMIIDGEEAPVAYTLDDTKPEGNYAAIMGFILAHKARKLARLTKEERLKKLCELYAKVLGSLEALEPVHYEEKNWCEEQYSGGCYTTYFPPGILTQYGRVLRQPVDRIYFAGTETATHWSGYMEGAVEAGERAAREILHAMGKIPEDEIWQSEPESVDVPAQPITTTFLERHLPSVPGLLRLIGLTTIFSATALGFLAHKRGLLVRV

hMAO-A = molecular target: T2, hMAO-A (Homo sapiens, UniProt P21397); experiment: MAO-A inhibition assay (in vitro fluorometric Amplex Red method); assay type: biochemical
T2 construct: purchased Sigma-Aldrich (Steinheim, Germany)
T2 sequence (P21397 1-527): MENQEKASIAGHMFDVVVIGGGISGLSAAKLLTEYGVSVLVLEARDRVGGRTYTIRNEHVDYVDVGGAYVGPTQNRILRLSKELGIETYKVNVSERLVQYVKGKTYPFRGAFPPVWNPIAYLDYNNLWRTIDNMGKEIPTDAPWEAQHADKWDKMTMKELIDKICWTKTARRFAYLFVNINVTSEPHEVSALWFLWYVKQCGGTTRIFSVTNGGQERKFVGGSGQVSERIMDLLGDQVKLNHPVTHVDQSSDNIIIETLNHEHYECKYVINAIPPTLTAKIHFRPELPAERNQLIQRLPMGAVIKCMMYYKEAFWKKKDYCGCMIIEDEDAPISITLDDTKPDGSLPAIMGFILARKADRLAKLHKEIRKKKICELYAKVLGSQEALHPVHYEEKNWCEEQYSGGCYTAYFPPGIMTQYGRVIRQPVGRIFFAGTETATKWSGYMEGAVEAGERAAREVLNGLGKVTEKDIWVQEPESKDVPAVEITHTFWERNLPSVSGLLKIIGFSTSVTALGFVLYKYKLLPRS

SMILES	inhibition at 1000 µM (hMAO-B; 10^−3 M) [%]	inhibition at 100 µM (hMAO-B; 10^−4 M) [%]	melting point [°C]	inhibition at 1000 µM (hMAO-A; 10^−3 M) [%]	inhibition at 100 µM (hMAO-A; 10^−4 M) [%]	further results
C(=NNc1ccccc1)c1ccc(N2CCN(c3ccccc3)CC2)cc1 [Compound 2c, 1-(4-(4-Phenylpiperazine-1-yl)benzylidene)-2-phenylhydrazine]	38.5 ± 0.732	34.7 ± 0.556	149.4 to 160.9	70.9 ± 1.06	43.2 ± 0.861	–
COc1ccc(N2CCN(c3ccc(C=NNc4ccccc4)cc3)CC2)cc1 [Compound 2d, 1-(4-(4-(4-Methoxyphenyl)piperazine-1-yl)benzylidene)-2-phenylhydrazine]	39.2 ± 0.863	30.6 ± 0.613	141.2 to 150.4	68.6 ± 1.5	40.2 ± 0.97	–
COc1ccc(Oc2ccc(C=NNc3ccccc3)cc2)cc1 [Compound 2e, 1-(4-(4-Methoxyphenoxy)benzylidene)-2-phenylhydrazine]	26.5 ± 0.478	19.4 ± 0.327	170.9 to 174.9	32.5 ± 0.844	25 ± 0.425	–
COc1ccc(Sc2ccc(C=NNc3ccccc3)cc2)cc1 [Compound 2f, 1-(4-((4-Methoxyphenyl)thio)benzylidene)-2-phenylhydrazine]	33.3 ± 0.833	21.9 ± 0.416	178.1 to 184.3	30.5 ± 0.817	26.7 ± 0.748	–
Fc1ccc(Oc2ccc(C=NNc3ccccc3)cc2)cc1 [Compound 2g, 1-(4-(4-Fluorophenoxy)benzylidene)-2-phenylhydrazine]	21.7 ± 0.52	17.1 ± 0.412	121.3 to 124.9	54.5 ± 1	20.4 ± 0.469	–
Fc1ccc(Sc2ccc(C=NNc3ccccc3)cc2)cc1 [Compound 2h, 1-(4-((4-Fluorophenyl)thio)benzylidene)-2-phenylhydrazine]	30.2 ± 0.574	24.1 ± 0.355	132.3 to 133.9	28.6 ± 0.57	21 ± 0.548	–
C(=NNc1ccccc1)c1ccc(-n2ccnc2)cc1 [Compound 2i, 1-(4-(1-Imidazolyl)benzylidene)-2-phenylhydrazine]	38.2 ± 1.09	30.7 ± 0.707	201.9 to 208.9	40.9 ± 0.9	18.3 ± 0.618	–
C(=NNc1ccccc1)c1ccc(-n2cncn2)cc1 [Compound 2j, 1-(4-(1H-1,2,4-triazole-1-yl)benzylidene)-2-phenylhydrazine]	27.5 ± 0.633	22.1 ± 0.419	127.4 to 132.2	38.6 ± 0.743	33 ± 0.66	–
Clc1ccc(Sc2ccc(C=NNc3ccccc3)cc2)cc1 [Compound 2k, 1-(4-((4-Chlorophenyl)thio)benzylidene)-2-phenylhydrazine]	36.3 ± 0.774	19 ± 0.825	164.4 to 165.7	29.2 ± 0.672	21.5 ± 0.468	–
C(=NNc1ccccc1)c1ccc(N2CCC(Cc3ccccc3)CC2)cc1 [Compound 2l, 1-(4-(Benzylpiperidine)benzylidene)-2-phenylhydrazine]	–	–	–	–	–	MAO-B Inhibition % (hMAO-B; 10^−3 M): 45.194 ± 0.692%; MAO-B Inhibition % (hMAO-B; 10^−4 M): 28.560 ± 0.629%; MAO-A Inhibition % (hMAO-A; 10^−3 M): 74.251 ± 1.614%; MAO-A Inhibition % (hMAO-A; 10^−4 M): 44.828 ± 0.917%
CN(C)CCN1CCN(c2ccc(C=NNc3ccccc3)cc2)CC1 [Compound 2m]	–	–	–	–	–	MAO-B Inhibition % (hMAO-B; 10^−3 M): 41.072 ± 0.732%; MAO-B Inhibition % (hMAO-B; 10^−4 M): 27.607 ± 0.961%; MAO-A Inhibition % (hMAO-A; 10^−3 M): 68.276 ± 1.048%; MAO-A Inhibition % (hMAO-A; 10^−4 M): 39.471 ± 0.719%
CN(C)CCCN1CCN(c2ccc(C=NNc3ccccc3)cc2)CC1 [Compound 2n]	–	–	–	–	–	MAO-B Inhibition % (hMAO-B; 10^−3 M): 40.629 ± 0.933%; MAO-B Inhibition % (hMAO-B; 10^−4 M): 29.068 ± 0.734%; MAO-A Inhibition % (hMAO-A; 10^−3 M): 64.435 ± 1.104%; MAO-A Inhibition % (hMAO-A; 10^−4 M): 36.154 ± 0.817%
O=C(NCCN1CCOCC1)c1ccc(Cl)cc1 [Moclobemide, reference compound]	–	–	–	–	82.1 ± 2.69	inhibition at 10 µM (hMAO-A; 10^−5 M): 60.5 ± 2.56%; inhibition at 1 µM (hMAO-A; 10^−6 M): 36.2 ± 1.98%; inhibition at 0.1 µM (hMAO-A; 10^−7 M): 22.1 ± 1.34%; inhibition at 0.01 µM (hMAO-A; 10^−8 M): 18.2 ± 0.812%; inhibition at 0.001 µM (hMAO-A; 10^−9 M): 14.1 ± 0.725%
